The source of these data is patent EP0938471B1, “THE PREPARATION AND USE OF ORTHO-SULFONAMIDO ARYL HYDROXAMIC ACIDS AS MATRIX METALLOPROTEINASE AND TACE INHIBITORS” (priority 1996, dated 1998).

What all share (type): biochemical
One assay has as its target TACE (Homo sapiens, UniProt P78536). Kind of assay: TACE inhibition (fluorescent peptidyl substrate). The settings on record: for inhibition at 1 µM: at 1µM concentration.
For the next assay, the target named is MMP-9 (Homo sapiens, UniProt P14780). Kind of assay: MMP-9 inhibition (thiopeptide or fluorescent peptide substrate assay). The settings on record: for IC50: read-out: MMP-9 IC50; for inhibition at 1 µM: read-out: MMP-9 % inhibition, footnote: 1µM.
Sequence of MMP-9 (P14780 94-707): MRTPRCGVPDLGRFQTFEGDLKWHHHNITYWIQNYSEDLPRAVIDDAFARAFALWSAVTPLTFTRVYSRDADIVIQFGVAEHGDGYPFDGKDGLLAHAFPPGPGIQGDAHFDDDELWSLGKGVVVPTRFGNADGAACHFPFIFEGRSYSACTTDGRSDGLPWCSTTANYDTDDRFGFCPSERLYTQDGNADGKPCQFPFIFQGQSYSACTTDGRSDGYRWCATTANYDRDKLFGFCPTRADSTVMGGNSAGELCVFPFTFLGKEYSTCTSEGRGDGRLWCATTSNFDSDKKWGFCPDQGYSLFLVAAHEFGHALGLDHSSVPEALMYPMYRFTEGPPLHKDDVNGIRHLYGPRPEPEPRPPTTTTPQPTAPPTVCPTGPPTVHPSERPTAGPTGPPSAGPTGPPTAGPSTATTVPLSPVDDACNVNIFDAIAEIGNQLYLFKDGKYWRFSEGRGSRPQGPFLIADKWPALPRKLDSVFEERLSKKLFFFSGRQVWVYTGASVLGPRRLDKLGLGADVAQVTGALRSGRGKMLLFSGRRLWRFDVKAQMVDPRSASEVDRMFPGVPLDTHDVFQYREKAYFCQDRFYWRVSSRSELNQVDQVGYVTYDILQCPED
A further assay has as its target T1, MMP-1 (Homo sapiens, UniProt P03956).
T1 sequence (P03956 100-469): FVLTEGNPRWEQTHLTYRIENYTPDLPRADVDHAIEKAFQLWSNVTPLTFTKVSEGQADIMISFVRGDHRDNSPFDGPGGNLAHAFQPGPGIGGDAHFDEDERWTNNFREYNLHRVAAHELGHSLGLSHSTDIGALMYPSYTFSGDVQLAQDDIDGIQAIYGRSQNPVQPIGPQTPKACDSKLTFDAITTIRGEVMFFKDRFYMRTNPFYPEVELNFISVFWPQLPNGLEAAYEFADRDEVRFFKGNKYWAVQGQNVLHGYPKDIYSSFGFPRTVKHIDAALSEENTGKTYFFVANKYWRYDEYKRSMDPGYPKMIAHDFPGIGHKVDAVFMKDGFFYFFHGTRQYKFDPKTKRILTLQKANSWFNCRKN
Description: MMP-1 inhibition (thiopeptide or fluorescent peptide substrate assay). The settings on record: for MMP-1 % inhibition: concentration given as (10), unit not given; for IC50: read-out: MMP-1 IC50; for inhibition at 1 µM: read-out: MMP-1 % inhibition, footnote: 1µM.

Another assay concerns the target MMP-13 (Homo sapiens, UniProt P45452). Description: MMP-13 inhibition (thiopeptide or fluorescent peptide substrate assay). The settings on record: for inhibition at 1 µM: read-out: MMP-13 % inhibition, footnote: 1µM.
[1] abbreviates: concentration given as (.1), unit not given.

Like-named read-outs stand apart in the source and are kept apart here.

Sequence of TACE (P78536 215-824): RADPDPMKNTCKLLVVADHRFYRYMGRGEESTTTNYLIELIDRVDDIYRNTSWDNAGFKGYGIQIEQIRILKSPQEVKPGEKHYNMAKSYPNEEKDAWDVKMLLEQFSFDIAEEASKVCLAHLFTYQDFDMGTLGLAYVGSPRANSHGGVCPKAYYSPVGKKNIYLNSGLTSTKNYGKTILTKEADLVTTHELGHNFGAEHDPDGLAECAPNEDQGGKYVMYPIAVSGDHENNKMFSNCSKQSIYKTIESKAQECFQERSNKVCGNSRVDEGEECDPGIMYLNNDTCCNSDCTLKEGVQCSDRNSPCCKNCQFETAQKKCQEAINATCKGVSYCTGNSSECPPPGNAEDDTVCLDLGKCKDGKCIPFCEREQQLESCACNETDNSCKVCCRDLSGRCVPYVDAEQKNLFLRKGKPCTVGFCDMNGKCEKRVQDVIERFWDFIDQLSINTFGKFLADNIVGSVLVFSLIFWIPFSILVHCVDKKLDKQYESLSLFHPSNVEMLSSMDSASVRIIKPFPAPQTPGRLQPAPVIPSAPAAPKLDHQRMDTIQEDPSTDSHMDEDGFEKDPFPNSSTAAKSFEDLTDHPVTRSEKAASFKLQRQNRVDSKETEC

As usually defined, the IC50 is the concentration that gives 50% inhibition. As for `CCCCCCCCCCC#Cc1cc(C)c(N(C)S(=O)(=O)c2ccc(OC)cc2)c(C(=O)NO)c1` [Example 358, 5-Dodec-1-ynyl-N-hydroxy-2-[(4-methoxy-benzenesulfonyl)-methyl-amino]-3-methyl-benzamide], the concentration for half-maximal inhibition (IC50) on TACE (read-out: TACE IC50) was 1050 nM; at MMP-9, 101 nM; on MMP-13 (read-out: MMP-13 IC50), 107 nM. In addition, the MMP-1 % inhibition on MMP-1 is 25%(10).

Take `CCCCCCCCCCCCc1cc(C)c(N(C)S(=O)(=O)c2ccc(OC)cc2)c(C(=O)NO)c1` [Example 360, 5-Dodecyl-N-hydroxy-2-[(4-methoxy-benzenesulfonyl)-methyl-amino]-3-methyl-benzamide]: the half-inhibitory concentration (IC50) at TACE (read-out: TACE IC50) was determined as 1400 nM; at MMP-9, 525 nM; on MMP-13 (read-out: MMP-13 IC50), 1260 nM. Also, the MMP-1 % inhibition at MMP-1 is reported as 14%(10).

For the compound `COCc1cccc(C(=O)NO)c1N(Cc1cccnc1)S(=O)(=O)c1ccc(OC)cc1` [Example 363, N-Hydroxy-2-[(4-methoxy-benzenesulfonyl)-pyridin-3-ylmethyl-amino]-3-methoxymethyl-benzamide], the concentration for half-maximal inhibition (IC50) amounted to 137 nM on TACE (read-out: TACE IC50), 20 nM at MMP-9, 449 nM at MMP-1 and 54 nM on MMP-13 (read-out: MMP-13 IC50).

Turning to `COc1ccc(S(=O)(=O)N(Cc2cccnc2)c2c(C(=O)NO)cccc2C(=O)OC(C)(C)C)cc1` [Example 367, N-Hydroxy-2-[(4-methoxy-benzenesulfonyl)-pyridin-3-ylmethyl-amino]-isophthalamic acid tert-butyl ester], the IC50 on TACE (read-out: TACE IC50) stood at 2700 nM; at MMP-9 it was 12 nM; at MMP-1 it was 597 nM; at MMP-13 (read-out: MMP-13 IC50) it was 13 nM.

As for `COC(=O)c1cccc(C(=O)NO)c1N(C)S(=O)(=O)c1ccc(OC)cc1` [Example 373, N-Hydroxy-2-[(4-methoxy-benzenesulfonyl)-methyl-amino]-isophthalamic acid methyl ester], the IC50 came out at 539 nM at TACE (read-out: TACE IC50), 26 nM at MMP-9, 1280 nM at MMP-1 and 59 nM at MMP-13 (read-out: MMP-13 IC50).

Broadly, the inhibition is how much of the control response was suppressed. Turning to `COc1ccc(S(=O)(=O)N(Cc2cccnc2)c2c(C(=O)O)cccc2C(=O)NO)cc1` [Example 374, N-Hydroxy-2-[(4-methoxy-benzenesulfonyl)-pyridin-3-ylmethyl-amino]-isophthalamic acid], the inhibition at 1 µM against TACE stood at 29%; at MMP-9, 36%; on MMP-13 it was 17%. Further, the MMP-1 % inhibition on MMP-1 is listed as 56%(10).

With `COc1ccc(S(=O)(=O)N(Cc2ccccn2)c2c(C)cccc2C(=O)NO)cc1` [Example 375, N-Hydroxy-2-[(4-methoxy-benzenesulfonyl)-pyridin-2-ylmethyl-amino]-3-methyl-benzamide], the IC50 at TACE (read-out: TACE IC50) is 356 nM; at MMP-9, 7.1 nM; at MMP-1 it was 329 nM; on MMP-13 (read-out: MMP-13 IC50), 18 nM.

Take `COc1ccc(S(=O)(=O)N(Cc2ccncc2)c2c(C)cccc2C(=O)NO)cc1` [Example 376, N-Hydroxy-2-[(4-methoxy-benzenesulfonyl)-pyridin-4-ylmethyl-amino]-3-methyl-benzamide]: the IC50 at TACE (read-out: TACE IC50) was 645 nM; on MMP-9 it was 8.4 nM; on MMP-1, 391 nM; at MMP-13 (read-out: MMP-13 IC50), 18 nM.

Turning to `CCN(CC)Cc1ccc(CN(c2c(C)cccc2C(=O)NO)S(=O)(=O)c2ccc(OC)cc2)cc1` [Example 377, 2-[(4-Diethylaminomethyl-benzyl)-(4-methoxy-benzenesulfonyl)-amino]-N-hydroxy-3-methyl-benzamide], the half-inhibitory concentration (IC50) worked out at 258 nM at TACE (read-out: TACE IC50), 4.7 nM at MMP-9, 123 nM on MMP-1 and 15 nM at MMP-13 (read-out: MMP-13 IC50).

`COc1ccc(S(=O)(=O)N(Cc2ccc(CN(C)C)cc2)c2c(C)cccc2C(=O)NO)cc1` [Example 378, 2-[(4-Dimethylaminomethyl-benzyl)-(4-methoxy-benzenesulfonyl)-amino]-N-hydroxy-3-methyl-benzamide]: the IC50 at TACE (read-out: TACE IC50) worked out at 243 nM; at MMP-9, 2.9 nM; at MMP-1, 213 nM; at MMP-13 (read-out: MMP-13 IC50) it was 11 nM.

On to `CCN(CC)CC#CCN(c1c(C)cccc1C(=O)NO)S(=O)(=O)c1ccc(OC)cc1` [Example 381, 2-[(4-Diethylamino-but-2-ynyl)-(4-methoxy-benzenesulfonyl)-amino]-N-hydroxy-3-methyl-benzamide], for which the IC50 on TACE (read-out: TACE IC50) is 218 nM; on MMP-9 it was 11 nM; at MMP-1 it was 470 nM; at MMP-13 (read-out: MMP-13 IC50), 19 nM.

As to `CCOC(=O)CCCN(c1c(C)cccc1C(=O)NO)S(=O)(=O)c1ccc(OC)cc1` [Example 383, 4-[(2-Hydroxycarbamoyl-6-methyl-phenyl)-(4-methoxy-benzenesulfonyl)-amino]-butyric acid ethyl ester], the inhibition at 1 µM is 45% on TACE, 87% at MMP-9, 34% on MMP-1 and 48% at MMP-13.

In the case of `CCOC(=O)CCCCN(c1c(C)cccc1C(=O)NO)S(=O)(=O)c1ccc(OC)cc1` [Example 384, 5-[(2-Hydroxycarbamoyl-6-methyl-phenyl)-(4-methoxy-benzenesulfonyl)-amino]-pentanoic acid ethyl ester], the inhibition at 1 µM against TACE was 55%; at MMP-9, 52%; at MMP-1 it was 48%; at MMP-13, 61%.

Regarding `COc1ccc(S(=O)(=O)N(CC(=O)OCc2ccccc2)c2c(C)cccc2C(=O)NO)cc1` [Example 385, [(2-Hydroxycarbamoyl-6-methyl-phenyl)-(4-methoxy-benzenesulfonyl)-amino]-acetic acid benzyl ester], the inhibition at 1 µM came to 56% against TACE, 65% at MMP-9, 25% on MMP-1 and 66% at MMP-13.

Consider `COc1ccc(S(=O)(=O)N(CC(=O)NCc2ccccn2)c2c(C)cccc2C(=O)NO)cc1` [Example 386, N-Hydroxy-2-[[(4-methoxyphenyl)sulfonyl][2-oxo-2-[(2-pyridinylmethyl)amino]ethyl]amino]-3-methylbenzamide], for which the figures for the inhibition at 1 µM against TACE and on MMP-1 were 46% and 21%, respectively. Further, the MMP-9 % inhibition at MMP-9 (setting [1]) is 16%(.1). The MMP-13 % inhibition on MMP-13 (setting [1]) is 11%(.1).

With `COc1ccc(S(=O)(=O)N(CC(=O)N2CCN(C)CC2)c2c(C)cccc2C(=O)NO)cc1` [Example 387, N-Hydroxy-2-{(4-methoxy-benzenesulfonyl)-[2-(4-methyl-piperazin-1-yl)-2-oxo-ethyl]-amino}-3-methyl-benzamide], at TACE, 1 µM produced 38% inhibition. Moreover, the results for the IC50 at MMP-9, on MMP-1 and at MMP-13 (read-out: MMP-13 IC50) were 96 nM, 2720 nM and 307 nM, respectively.

As to `COc1ccc(S(=O)(=O)N(CCO)c2c(C)cccc2C(=O)NO)cc1` [Example 388, N-Hydroxy-2-[(2-hydroxy-ethyl)-(4-methoxy-benzenesulfonyl)-amino]-3-methyl-benzamide], the results for the inhibition at 1 µM at TACE, on MMP-9 and at MMP-13 were 35%, 47% and 39%, respectively. Further, the MMP-1 % inhibition on MMP-1 was 66%(10).

Consider `COc1ccc(S(=O)(=O)N(Cc2ccccc2)c2c(C)cc(N(C)C)cc2C(=O)NO)cc1` [Example 389, 2-[Benzyl-(4-methoxy-benzenesulfonyl)-amino]-5-dimethylamino-N-hydroxy-3-methyl-benzamide], for which the IC50 at TACE (read-out: TACE IC50) worked out at 633 nM; at MMP-9 it was 2 nM; at MMP-1, 63 nM; on MMP-13 (read-out: MMP-13 IC50) it was 39 nM.

Turning to `COc1ccc(S(=O)(=O)N(Cc2ccc(OCCN3CCCCC3)cc2)c2c(C)cccc2C(=O)NO)cc1` [Example 393, N-Hydroxy-2-[[(4-methoxyphenyl)sulfonyl][[4-[2-(1-piperidinyl)ethoxy]phenyl]methyl]amino]-3-methylbenzamide], the 50% inhibitory concentration (IC50) against TACE was 277 nM; at MMP-9 it was 6.9 nM; on MMP-1 it was 176 nM; at MMP-13 it was 56 nM.

For the compound `CCN(CC)CCOc1ccc(CN(c2c(C)cccc2C(=O)NO)S(=O)(=O)c2ccc(OC)cc2)cc1` [Example 394, 2-[[4-(2-Diethylamino-ethoxy)-benzyl]-(4-methoxy-benzenesulfonyl)-amino]-N-hydroxy-3-methyl-benzamide], the IC50 at TACE (read-out: TACE IC50) was found to be 215 nM; on MMP-9 it was 2.3 nM; at MMP-1, 96 nM; on MMP-13 (read-out: MMP-13 IC50) it was 8.8 nM.

For `COc1ccc(S(=O)(=O)N(Cc2ccc(OCCN3CCCCC3)cc2)c2c(C)cc(Br)cc2C(=O)NO)cc1` [Example 395, 5-Bromo-N-hydroxy-2-{(4-methoxy-benzenesulfonyl)-[4-(2-piperidin-1-yl-ethoxy)-benzyl]-amino}-3-methyl-benzamide], the IC50 at TACE (read-out: TACE IC50) was found to be 108 nM; at MMP-9, 2.3 nM; on MMP-1 it was 35 nM; on MMP-13 (read-out: MMP-13 IC50), 3.1 nM.

Consider `COc1ccc(S(=O)(=O)N(Cc2ccc(C(=O)NCCN3CCCCC3)cc2)c2c(C)cccc2C(=O)NO)cc1` [Example 396], for which the IC50 was 363 nM on TACE (read-out: TACE IC50), 6.3 nM on MMP-9, 184 nM on MMP-1 and 35 nM at MMP-13 (read-out: MMP-13 IC50).
